Laboratory results: paper PMC4315428 (PLoS ONE, 2015)

Columns and labels:
[1] = system: L-type Ca^2+ channel; format: cell-based, rat (Sprague-Dawley); settings: 10 μM
[2] = system: T-type Ca^2+ channel; format: cell-based, rat (Sprague-Dawley); settings: 10 μM
[3] = system: tetrodotoxin-sensitive (TTX-S) sodium channels; settings: read-out: IC50 value, TTX-S voltage-gated sodium channels; cited from earlier work

Substance: Hainantoxin-IV [HNTX-IV]
- effect on Ca^2+ currents (L-type) [1]: neither native HNTX-IV (Fig. 8A, 8B) nor rHNTX-IV (Fig. 8C, 8D) could cause obvious changes
- effect on Ca^2+ currents (T-type) [2]: neither native HNTX-IV (Fig. 8A, 8B) nor rHNTX-IV (Fig. 8C, 8D) could cause obvious changes
- IC50 [3]: 34 nM
